# Reference: patent US20020019365A1, “Pharmaceutical compositions of 2'-deoxy-2'-(fluoromethylene)cytidine” (priority 2000, published 2002)
# Experiments:
# [1] = pH-rate profile for the degradation of FMdC (pH-stability profile, FIG. 1); type: physicochemical
# [2] = oral administration of FMdC in a conventional tablet form, systemic uptake / bioavailability; type: in vivo; settings: mammalian patient
# Description: Notwithstanding these teachings in the art, a problem has been encountered when the compound is administered in an oral form.
smiles,measurement,setting,value
"Nc1ccn(C2OC(CO)[C@@H](O)/C2=C\F)c(=O)n1 (stereo partly shown) [FMdC, 2′-deoxy-2′-(fluoromethylene)cytidine]",pH at which FMdC is most stable,[1]; Britton-Robinson buffer (pH 2 to pH 11) and 0.1N HCl (pH 1) at 60° C.,~9 pH
same,stability at a pH of about 2 or less,"[1]; pH of about 2 or less, 60° C.",very unstable
same,patient-to-patient variability of systemic uptake,[2],high
same,systemic uptake of the drug (oral bioavailability),[2],less than desirable
